Measured values reported in patent publication US20240100170A1, “CYCLIC-AMP RESPONSE ELEMENT BINDING PROTEIN (CBP) AND/OR ADENOVIRAL E1A BINDING PROTEIN OF 300 KDA (P300) DEGRADATION COMPOUNDS AND METHODS OF USE” (CULLGEN (SHANGHAI), INC., priority 2020, published 2024).

Tests used:
[1] = system: LNCaP prostate cancer cell; assay: LNCaP cell viability (CellTiter-Glo); type: cell-based; details: Homo sapiens, 72 h; LNCaP cell viability, 3 days, CellTiter-Glo; Table 4
Outline: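 LNCaP cells (5000/well, RPMI 1640 + 10% FBS, 37 °C) treated with compounds in 12-point 3-fold serial dilution for three days. Viability read by CellTiter-Glo luminescence, normalized to untreated cells; IC50 from least-squares nonlinear regression.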

[2] = target: P300 (Homo sapiens, UniProt Q09472); assay: percentage of inhibition (degradation) of p300 at 10 nM, Tables 2-4; type: cell-based; design: LNCaP or 22RV1 cells that express CBP/P300 proteins were treated with GNE-781 or the bivalent compounds; endogenous in cells; host or cells: LNCaP or 22RV1 (not given); details: p300, 10 nM; Table 4; read-out: Degradation (10 nM)
Method: Cultured cells or tissue chunks were washed with cold PBS once and lysed in cold RIPA buffer supplemented with protease inhibitors and phosphatase inhibitors (Beyotime Biotechnology). The solutions were then incubated at 4° C. for 30 minutes with gentle agitation to fully lyse cells. Cell lysates were centrifuged at 13,000 rpm for 10 minutes at 4° C. and pellets were discarded. Total protein concentrations in the lysates were determined by BCA assays (Beyotime Biotechnology). Cell lysates were mixed with Laemmli loading buffer to 1 X and heated at 99° C. for 5 min. Proteins were resolved on SDS-PAGE and visualized by chemiluminescence. Images were taken by a ChemiDoc MP Imaging system (Bio-Rad). Protein bands were quantitated using the accompanied software provided by Bio-Rad.

Chain of P300 (Q09472 whole entry): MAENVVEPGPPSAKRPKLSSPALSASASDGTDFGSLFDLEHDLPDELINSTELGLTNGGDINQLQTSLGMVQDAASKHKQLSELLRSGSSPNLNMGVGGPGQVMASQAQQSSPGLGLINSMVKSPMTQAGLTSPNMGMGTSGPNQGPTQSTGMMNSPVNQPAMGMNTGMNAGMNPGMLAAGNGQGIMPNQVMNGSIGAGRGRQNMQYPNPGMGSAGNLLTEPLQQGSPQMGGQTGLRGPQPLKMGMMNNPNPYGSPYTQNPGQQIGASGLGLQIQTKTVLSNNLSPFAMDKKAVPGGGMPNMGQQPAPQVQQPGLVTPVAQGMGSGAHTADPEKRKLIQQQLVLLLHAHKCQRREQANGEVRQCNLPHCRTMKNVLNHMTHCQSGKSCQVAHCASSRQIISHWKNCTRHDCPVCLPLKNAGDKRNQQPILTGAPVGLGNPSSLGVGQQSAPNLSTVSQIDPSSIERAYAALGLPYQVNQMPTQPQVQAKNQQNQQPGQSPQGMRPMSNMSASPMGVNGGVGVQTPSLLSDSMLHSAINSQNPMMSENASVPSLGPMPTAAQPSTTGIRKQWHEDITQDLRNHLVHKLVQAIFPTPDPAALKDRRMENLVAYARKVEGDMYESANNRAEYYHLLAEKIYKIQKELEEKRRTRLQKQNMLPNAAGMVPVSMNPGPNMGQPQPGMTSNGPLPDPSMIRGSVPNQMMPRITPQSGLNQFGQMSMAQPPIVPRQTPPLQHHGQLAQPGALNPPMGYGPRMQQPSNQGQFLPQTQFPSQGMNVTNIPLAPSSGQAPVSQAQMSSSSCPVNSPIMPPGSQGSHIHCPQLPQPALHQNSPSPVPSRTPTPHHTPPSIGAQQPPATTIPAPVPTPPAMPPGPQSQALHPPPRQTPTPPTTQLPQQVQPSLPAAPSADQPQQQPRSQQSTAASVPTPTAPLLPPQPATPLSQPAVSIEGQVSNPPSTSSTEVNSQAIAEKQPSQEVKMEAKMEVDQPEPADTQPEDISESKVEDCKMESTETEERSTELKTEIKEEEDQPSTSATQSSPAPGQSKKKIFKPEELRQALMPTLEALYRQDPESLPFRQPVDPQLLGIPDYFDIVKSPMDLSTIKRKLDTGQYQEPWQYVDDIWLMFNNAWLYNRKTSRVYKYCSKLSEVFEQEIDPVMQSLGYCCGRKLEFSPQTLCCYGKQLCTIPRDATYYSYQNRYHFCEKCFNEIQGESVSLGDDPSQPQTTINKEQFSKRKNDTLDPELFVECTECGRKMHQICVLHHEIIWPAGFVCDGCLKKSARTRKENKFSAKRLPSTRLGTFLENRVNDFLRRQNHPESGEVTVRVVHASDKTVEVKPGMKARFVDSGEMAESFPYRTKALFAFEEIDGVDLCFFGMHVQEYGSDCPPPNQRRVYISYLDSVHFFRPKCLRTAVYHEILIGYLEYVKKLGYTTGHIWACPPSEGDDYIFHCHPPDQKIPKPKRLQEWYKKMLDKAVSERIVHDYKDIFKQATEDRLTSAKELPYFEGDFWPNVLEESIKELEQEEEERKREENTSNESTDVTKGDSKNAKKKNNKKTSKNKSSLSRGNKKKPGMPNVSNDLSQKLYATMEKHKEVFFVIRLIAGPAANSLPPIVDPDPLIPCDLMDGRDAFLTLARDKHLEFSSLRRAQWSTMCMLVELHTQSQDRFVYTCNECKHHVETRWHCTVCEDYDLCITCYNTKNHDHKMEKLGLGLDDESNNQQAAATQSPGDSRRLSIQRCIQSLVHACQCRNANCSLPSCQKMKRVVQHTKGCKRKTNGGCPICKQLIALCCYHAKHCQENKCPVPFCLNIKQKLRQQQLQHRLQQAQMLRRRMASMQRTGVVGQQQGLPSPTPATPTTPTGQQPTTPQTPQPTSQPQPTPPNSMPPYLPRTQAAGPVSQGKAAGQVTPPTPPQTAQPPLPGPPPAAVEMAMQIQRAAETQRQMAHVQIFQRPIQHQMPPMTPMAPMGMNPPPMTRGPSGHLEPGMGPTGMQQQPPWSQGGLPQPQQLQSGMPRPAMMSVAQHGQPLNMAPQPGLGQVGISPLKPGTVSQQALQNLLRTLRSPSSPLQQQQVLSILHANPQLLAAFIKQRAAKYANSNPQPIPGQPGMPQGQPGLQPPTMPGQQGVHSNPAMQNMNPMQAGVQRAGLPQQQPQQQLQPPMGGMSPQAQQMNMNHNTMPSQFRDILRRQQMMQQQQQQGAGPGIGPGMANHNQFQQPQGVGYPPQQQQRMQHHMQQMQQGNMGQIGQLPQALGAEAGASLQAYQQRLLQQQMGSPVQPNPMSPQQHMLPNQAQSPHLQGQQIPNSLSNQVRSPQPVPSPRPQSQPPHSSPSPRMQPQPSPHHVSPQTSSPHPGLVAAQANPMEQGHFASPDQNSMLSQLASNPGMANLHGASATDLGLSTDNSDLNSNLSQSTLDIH

IC50 [1]	inhibition at 0.01 µM [2]	SMILES
4.9 nM	> 80%	CC(=O)N1CCc2c(c(N3CCCc4cc(-c5cnn(C)c5)c(C(F)F)cc43)nn2C2CCN(Cc3ccc(COc4cccc5c4C(=O)N(C4CCC(=O)NC4=O)C5)cc3)CC2)C1 (stereo not drawn) [P-194, 3-(7-((4-((4-(5-acetyl-3-(7-(difluoromethyl)-6-(1-methyl-1H-pyrazol-4-yl)-3,4-dihydroquinolin-1(2H)-yl)-4,5,6,7-tetrahydro-1H-pyrazolo[4,3-c]pyridin-1-yl)piperidin-1-yl)methyl)benzyl)oxy)-1-oxoisoindolin-2-yl)piperidine-2,6-dione]
17.6 nM	50 to 80%	CC(=O)N1CCc2c(c(N3CCCc4cc(-c5cnn(C)c5)c(C(F)F)cc43)nn2C2CCN(Cc3ccc(COc4cccc5c4C(=O)N(C4CCC(=O)NC4=O)C5=O)cc3)CC2)C1 (stereo not drawn) [P-195, 4-((4-((4-(5-acetyl-3-(7-(difluoromethyl)-6-(1-methyl-1H-pyrazol-4-yl)-3,4-dihydroquinolin-1(2H)-yl)-4,5,6,7-tetrahydro-1H-pyrazolo[4,3-c]pyridin-1-yl)piperidin-1-yl)methyl)benzyl)oxy)-2-(2,6-dioxopiperidin-3-yl)isoindoline-1,3-dione]
2.4 nM	> 80%	CC(=O)N1CCc2c(c(N3CCCc4cc(-c5cnn(C)c5)c(C(F)F)cc43)nn2C2CCN(Cc3ccc(CNc4cccc5c4CN(C4CCC(=O)NC4=O)C5=O)nc3)CC2)C1 (stereo not drawn) [P-196, 3-(4-(((5-((4-(5-acetyl-3-(7-(difluoromethyl)-6-(1-methyl-1H-pyrazol-4-yl)-3,4-dihydroquinolin-1(2H)-yl)-4,5,6,7-tetrahydro-1H-pyrazolo[4,3-c]pyridin-1-yl)piperidin-1-yl)methyl)pyridin-2-yl)methyl)amino)-1-oxoisoindolin-2-yl)piperidine-2,6-dione]

The remaining lines, values behind:

SMILES	IC50 [1]	inhibition at 0.01 µM [2]
CC(=O)N1CCc2c(c(N3CCCc4cc(-c5cnn(C)c5)c(C(F)F)cc43)nn2C2CCN(CCN3CCN(c4cccc5c4C(=O)N(C4CCC(=O)NC4=O)C5=O)CC3)CC2)C1 (stereo not drawn) [P-191, 4-(4-(2-(4-(5-acetyl-3-(7-(difluoromethyl)-6-(1-methyl-1H-pyrazol-4-yl)-3,4-dihydroquinolin-1(2H)-yl)-4,5,6,7-tetrahydro-1H-pyrazolo[4,3-c]pyridin-1-yl)piperidin-1-yl)ethyl)piperazin-1-yl)-2-(2,6-dioxopiperidin-3-yl)isoindoline-1,3-dione]	179 nM	< 20%
CC(=O)N1CCc2c(c(N3CCCc4cc(-c5cnn(C)c5)c(C(F)F)cc43)nn2C2CCN(CCC3CCN(c4cccc5c4C(=O)N(C4CCC(=O)NC4=O)C5=O)CC3)CC2)C1 (stereo not drawn) [P-192, 4-(4-(2-(4-(5-acetyl-3-(7-(difluoromethyl)-6-(1-methyl-1H-pyrazol-4-yl)-3,4-dihydroquinolin-1(2H)-yl)-4,5,6,7-tetrahydro-1H-pyrazolo[4,3-c]pyridin-1-yl)piperidin-1-yl)ethyl)piperidin-1-yl)-2-(2,6-dioxopiperidin-3-yl)isoindoline-1,3-dione]	10.2 nM	50 to 80%
CC(=O)N1CCc2c(c(N3CCCc4cc(-c5cnn(C)c5)c(C(F)F)cc43)nn2C2CCN(CCCN3CCC(CNc4cccc5c4C(=O)N(C4CCC(=O)NC4=O)C5=O)CC3)CC2)C1 (stereo not drawn) [P-193, 4-(((1-(3-(4-(5-acetyl-3-(7-(difluoromethyl)-6-(1-methyl-1H-pyrazol-4-yl)-3,4-dihydroquinolin-1(2H)-yl)-4,5,6,7-tetrahydro-1H-pyrazolo[4,3-c]pyridin-1-yl)piperidin-1-yl)propyl)piperidin-4-yl)methyl)amino)-2-(2,6-dioxopiperidin-3-yl)isoindoline-1,3-dione]	3.2 nM	> 80%
